Test results reported in ChEMBL document CHEMBL2385059, “3-Hydroxyquinolin-2(1H)-ones As Inhibitors of Influenza A Endonuclease” (ACS Med Chem Lett, 2013).

How the values were obtained:
[1] = Inhibition of H1N1 Influenza A endonuclease after 1 hr by fluorescence assay; design: species or system Influenza A virus
HEK293 = assay: Cytotoxicity against HEK293 cells after 4 days by MTT assay; format: cell-based; details: Homo sapiens, HEK293, 96 h
MDCK = assay: Cytotoxicity against dog MDCK cells after 4 days by MTT assay; format: cell-based; details: Canis lupus familiaris, 96 h

O=c1[nH]c2cc(-c3ccc(F)cc3)ccc2c(Br)c1O
IC50 [1]: 1.1 µM

Cc1c(O)c(=O)[nH]c2ccccc12
IC50 [1]: > 100 µM

O=c1[nH]c2ccc(Br)cc2cc1O
IC50 [1]: 7.4 µM | IC50 (HEK293): > 10 µM | IC50 (MDCK): > 10 µM

O=c1[nH]c2ccccc2c(-c2ccccc2)c1O
IC50 [1]: > 20 µM

Oc1nc2ccccc2c(Br)c1O
IC50 [1]: 53 µM

O=c1[nH]c2cccc(Br)c2cc1O
IC50 [1]: 12 µM | IC50 (HEK293): > 10 µM | IC50 (MDCK): > 10 µM

Cc1c(O)c(=O)[nH]c2cc(-c3ccc(F)cc3)ccc12
IC50 [1]: 13 µM

O=c1[nH]c2c(Br)cccc2cc1O
IC50 [1]: 11 µM | IC50 (HEK293): > 10 µM | IC50 (MDCK): > 10 µM

O=c1[nH]c2cccc(-c3ccc(F)cc3)c2cc1O
IC50 [1]: 3.3 µM

O=c1[nH]c2ccccc2c(-c2ccc(F)cc2)c1O
IC50 [1]: 11 µM

O=c1[nH]c2cc(-c3ccc(F)cc3)ccc2cc1O
IC50 [1]: 0.5 µM

O=c1[nH]c2ccc(-c3ccc(F)cc3)cc2cc1O
IC50 [1]: 0.5 µM

O=c1[nH]c2cc(-c3ccc(F)cc3)ccc2c(-c2ccccc2)c1O
IC50 [1]: 2 µM

O=c1[nH]c2c(-c3ccc(F)cc3)cccc2cc1O
IC50 [1]: 4.7 µM

O=c1[nH]c2cc(Br)ccc2cc1O
IC50 [1]: 7.6 µM | IC50 (HEK293): > 10 µM | IC50 (MDCK): > 10 µM
